Each molecule was assayed against T1, ΔF508-CFTR (Homo sapiens, UniProt P13569, DEL508-508) (assay: hBE equivalent current (Ieq) assay: AUC of equivalent chloride current after forskolin/VX-770 in primary lung epithelial cells homozygous for ΔF508). Settings: relative to CFTR amplifier (Compound A)+VX-809 (3 uM), compound at 10 uM and Compound A at 3 uM, 24 h treatment.
T1 construct: Primary lung epithelial cells homozygous for the Cystic Fibrosis-causing ΔF508 mutation were differentiated for a minimum of 4 weeks; endogenous in cells; host or cells: primary lung epithelial cells (hBE) homozygous for ΔF508, differentiated at an air-liquid interface
T1 sequence (P13569 with tags, fused parts or gaps DEL508-508): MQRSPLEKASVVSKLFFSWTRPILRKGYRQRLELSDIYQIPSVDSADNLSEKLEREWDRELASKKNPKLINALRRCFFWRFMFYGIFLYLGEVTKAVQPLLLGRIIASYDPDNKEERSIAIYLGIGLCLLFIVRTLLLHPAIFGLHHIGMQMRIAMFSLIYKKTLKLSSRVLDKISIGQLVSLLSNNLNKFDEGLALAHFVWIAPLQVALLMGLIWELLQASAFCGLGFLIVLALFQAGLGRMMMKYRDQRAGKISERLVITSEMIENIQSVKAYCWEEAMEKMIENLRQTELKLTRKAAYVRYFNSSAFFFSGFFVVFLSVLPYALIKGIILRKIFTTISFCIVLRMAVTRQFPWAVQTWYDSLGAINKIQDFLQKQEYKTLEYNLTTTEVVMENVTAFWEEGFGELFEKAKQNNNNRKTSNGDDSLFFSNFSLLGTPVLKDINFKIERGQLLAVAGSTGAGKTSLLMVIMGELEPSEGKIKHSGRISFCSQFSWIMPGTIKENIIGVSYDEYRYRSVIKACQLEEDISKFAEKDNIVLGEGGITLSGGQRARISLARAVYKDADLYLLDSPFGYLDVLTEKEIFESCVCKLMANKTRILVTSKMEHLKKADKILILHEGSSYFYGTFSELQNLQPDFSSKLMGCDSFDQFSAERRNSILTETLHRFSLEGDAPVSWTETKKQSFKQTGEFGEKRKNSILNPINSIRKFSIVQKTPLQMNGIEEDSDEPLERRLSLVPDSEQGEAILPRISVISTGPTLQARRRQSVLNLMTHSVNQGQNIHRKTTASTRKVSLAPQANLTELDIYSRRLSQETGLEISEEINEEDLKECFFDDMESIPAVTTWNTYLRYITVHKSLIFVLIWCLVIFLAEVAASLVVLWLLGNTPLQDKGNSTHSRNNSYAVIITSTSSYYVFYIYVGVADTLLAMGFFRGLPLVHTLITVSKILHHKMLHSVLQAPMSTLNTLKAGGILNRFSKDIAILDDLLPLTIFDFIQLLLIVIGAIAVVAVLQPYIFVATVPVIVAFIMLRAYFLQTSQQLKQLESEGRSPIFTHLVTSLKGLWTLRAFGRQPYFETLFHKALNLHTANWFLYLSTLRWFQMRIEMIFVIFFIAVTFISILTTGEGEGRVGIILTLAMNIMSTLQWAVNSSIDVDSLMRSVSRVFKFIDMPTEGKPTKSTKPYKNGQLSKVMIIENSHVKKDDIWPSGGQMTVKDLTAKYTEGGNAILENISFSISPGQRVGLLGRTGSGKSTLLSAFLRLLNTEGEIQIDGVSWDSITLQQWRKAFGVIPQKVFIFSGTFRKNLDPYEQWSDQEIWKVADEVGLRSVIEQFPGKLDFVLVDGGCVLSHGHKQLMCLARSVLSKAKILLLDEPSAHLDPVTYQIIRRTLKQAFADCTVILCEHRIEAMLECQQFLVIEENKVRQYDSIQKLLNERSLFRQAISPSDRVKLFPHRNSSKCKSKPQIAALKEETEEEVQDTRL
Assay type: cell-based
Description: ii. hBE Equivalent Current (Ieq) Assay
Primary lung epithelial cells homozygous for the Cystic Fibrosis-causing ΔF508 mutation were differentiated for a minimum of 4 weeks in an air-liquid interface on Costar 24 well HTS filter plates prior to the equivalent current (Ieq) measurements. Cells were apically mucus-washed for 30 minutes 24 h prior to treatment with compounds. The basolateral media was removed and replaced with media containing the compound of interest diluted to its final concentration from DMSO stocks. Treated cells were incubated at 37° C. and 5% CO2 for 24 hours. At the end of the treatment period, the media was changed to the Ieq experimental solution for 2 hours before the experiment and plates are maintained in a CO2-free incubator during this period. The plates containing the cells were then placed in pre-warmed heating blocks at 36° C.±0.5 for 15 minutes before measurements are taken. The transepithelial voltage (VT) and conductance (GT) were measured using a custom 24 channel current clamp (TECC-24) with 24 well electrode manifold. The Ieq assay measurements were made following additions with standardized time periods: • 1. The baseline VT and GT values were measured for approximately 20 minutes. • 2. Benzamil was added to block ENaC for 15 minutes. • 3. Forskolin plus VX-770 were added to maximally activate ΔF508-CFTR for 27 minutes. • 4. Bumetanide was added to inhibit the NaK2Cl cotransporter and shut-off secretion of chloride.
The activity data captured was the area under the curve (AUC) for the traces of the equivalent chloride current. The AUC was collected from the time of the forskolin/VX-770 addition until the inhibition by bumetanide addition. Correction in response to compound treatment was scored as the increase in the AUC for compound-treated samples over that of vehicle-treated samples.
(+ indicates activity<50% of an CFTR amplifier (Compound A)+VX-809 (3 uM) with compound at 10 uM and Compound A at 3 uM; ++ indicates activity>50% of CFTR amplifier+VX-809 (3 uM) with compound at 10 uM and Compound A at 3 uM.
With `Cc1c(-c2cc(C(=O)[O-])c3c(O[C@@H]4C[C@H](C)C[C@H](C)C4)ccc(C)c3n2)sc2ccccc12.[Na+]` [Compound 315] the Activity was “++ (activity>50% of CFTR amplifier+VX-809 (3 uM) with compound at 10 uM and Compound A at 3 uM)”.
`CCc1ccc(COc2ccccc2)c2c(C(=O)O)cc(-c3csc4ccccc34)nc12` [Compound 180] was tested, and the Activity was “++ (activity>50% of CFTR amplifier+VX-809 (3 uM) with compound at 10 uM and Compound A at 3 uM)”.
For `Cc1c(-c2cc(C(=O)[O-])c3c(OCc4cccc(F)c4)ccc(C)c3n2)sc2ccccc12.[Na+]` [Compound 290, Sodium 5-[(3-Fluorophenyl)methoxy]-8-methyl-2-(3-methyl-1-benzothiophen-2-yl)quinoline-4-carboxylate], the Activity was “++ (activity>50% of CFTR amplifier+VX-809 (3 uM) with compound at 10 uM and Compound A at 3 uM)”.
In the case of `Cc1c(-c2cc(C(=O)O)c3c(OC4CCC(c5nnco5)CC4)ccc(C)c3n2)oc2ccccc12` (stereo not drawn) [Compound 97, 8-Methyl-2-(3-methyl-1-benzofuran-2-yl)-5-[[4-(1,3,4-oxadiazol-2-yl)cyclohexyl]oxy]quinoline-4-carboxylic acid], the Activity is reported as “++ (activity>50% of CFTR amplifier+VX-809 (3 uM) with compound at 10 uM and Compound A at 3 uM)”.
For `CCc1ccc([S+]([O-])C2CCCCC2)c2c(C(=O)[O-])cc(-c3sc4ccccc4c3C)nc12.[Na+]` (stereo not drawn) [Compound 140, Sodium 5-(Cyclohexanesulfinyl)-8-ethyl-2-(3-methyl-1-benzothiophen-2-yl)quinoline-4-carboxylate], the Activity was “++ (activity>50% of CFTR amplifier+VX-809 (3 uM) with compound at 10 uM and Compound A at 3 uM)”.
`Cc1c(-c2cc(C(=O)[O-])c3c(O[C@H](CO)c4ccccc4)ccc(C)c3n2)sc2ccccc12.[Na+]` [Compound 307] was tested, and the Activity was “++ (activity>50% of CFTR amplifier+VX-809 (3 uM) with compound at 10 uM and Compound A at 3 uM)”.
In the case of `CCc1ccc(OCc2cccc(S(C)(=O)=O)c2)c2c(C(=O)O)cc(-c3oc4ccccc4c3C)nc12` [Compound 143, 8-Ethyl-5-[(3-methanesulfonylphenyl)methoxy]-2-(3-methyl-1-benzofuran-2-yl)quinoline-4-carboxylic Acid], the Activity is reported as “++ (activity>50% of CFTR amplifier+VX-809 (3 uM) with compound at 10 uM and Compound A at 3 uM)”.
For `Cc1c(-c2cc(C(=O)[O-])c3c(OCc4ccc(S(C)(=O)=O)cc4)ccc(C)c3n2)oc2ccccc12.[Na+]` [Compound 263], the Activity was “++ (activity>50% of CFTR amplifier+VX-809 (3 uM) with compound at 10 uM and Compound A at 3 uM)”.
For `Cc1c(-c2cc(C(=O)O)c3cc(Cl)cc(C)c3n2)oc2ccccc12` [Compound 17, 6-Chloro-8-methyl-2-(3-methylbenzofuran-2-yl)quinoline-4-carboxylic acid], the Activity was “++ (activity>50% of CFTR amplifier+VX-809 (3 uM) with compound at 10 uM and Compound A at 3 uM)”.
For `Cc1c(-c2cc(C(=O)[O-])c3c(OCc4ccccc4C#N)ccc(C)c3n2)sc2ccccc12.[Na+]` [Compound 280], the Activity was “++ (activity>50% of CFTR amplifier+VX-809 (3 uM) with compound at 10 uM and Compound A at 3 uM)”.
For `Cc1c(-c2cc(C(=O)[O-])c3c(O[C@@H](C)c4ccn5nccc5c4)ccc(C)c3n2)oc2ccccc12.[Na+]` [Compound 258, Sodium 8-Methyl-2-((1S)-3-methyl-1-benzofuran-2-yl)-5-(1-[pyrazolo[1,5-a]pyridin-5-yl]ethoxy)quinoline-4-carboxylate], the Activity was “++ (activity>50% of CFTR amplifier+VX-809 (3 uM) with compound at 10 uM and Compound A at 3 uM)”.
In the case of `Cc1c(-c2cc(C(=O)[O-])c3c(O[C@H]4CCC[C@H](c5ccccc5)C4)ccc(C)c3n2)oc2ccccc12.[Na+]` [Compound 302], the Activity is reported as “++ (activity>50% of CFTR amplifier+VX-809 (3 uM) with compound at 10 uM and Compound A at 3 uM)”.
In the case of `Cc1c(-c2cc(C(=O)[O-])c3c(O[C@H](C)C4CCOCC4)ccc(C)c3n2)oc2ccccc12.[Na+]` [Compound 245, Sodium 5-((1R)-1-(tetrahydro-2H-pyran-4-yl)ethoxy)-8-methyl-2-(3-methyl-1-benzofuran-2-yl)quinoline-4-carboxylate], the Activity is reported as “++ (activity>50% of CFTR amplifier+VX-809 (3 uM) with compound at 10 uM and Compound A at 3 uM)”.
In the case of `Cc1c(-c2cc(C(=O)O)c3c(OC4CCCCC4)ccc(C)c3n2)oc2ccccc12` [Compound 79, 5-(Cyclohexyloxy)-8-methyl-2-(3-methyl-1-benzofuran-2-yl)quinoline-4-carboxylic acid], the Activity is reported as “++ (activity>50% of CFTR amplifier+VX-809 (3 uM) with compound at 10 uM and Compound A at 3 uM)”.
For `Cc1c(-c2cc(C(=O)[O-])c3c(OCC4CC(C)(C)OC(C)(C)C4)ccc(C)c3n2)oc2ccccc12.[Na+]` [Compound 338], the Activity was “++ (activity>50% of CFTR amplifier+VX-809 (3 uM) with compound at 10 uM and Compound A at 3 uM)”.
`Cc1c(-c2cc(C(=O)[O-])c3c(O[C@@H](C)c4ccc(C5COC5)cc4)ccc(C)c3n2)oc2ccccc12.[Na+]` [Compound 286, Sodium 8-Methyl-2-(3-methyl-1-benzofuran-2-yl)-5-[(1S)-1-[4-(oxetan-3-yl)phenyl]ethoxy]quinoline-4-carboxylate] was tested, and the Activity was “++ (activity>50% of CFTR amplifier+VX-809 (3 uM) with compound at 10 uM and Compound A at 3 uM)”.
`Cc1c(-c2cc(C(=O)[O-])c3c(O[C@H](C)C4CCN(S(C)(=O)=O)CC4)ccc(C)c3n2)oc2ccccc12.[Na+]` [Compound 247, Sodium 5-[(1R)-1-(1-Methanesulfonylpiperidin-4-yl)ethoxy]-8-methyl-2-(3-methyl-1-benzofuran-2-yl)quinoline-4-carboxylate] was tested, and the Activity was “++ (activity>50% of CFTR amplifier+VX-809 (3 uM) with compound at 10 uM and Compound A at 3 uM)”.
With `Cc1c(-c2cc(C(=O)[O-])c3c(O[C@H](C)c4ccn5nccc5c4)ccc(C)c3n2)oc2ccccc12.[Na+]` [Compound 257, Sodium 8-Methyl-2-((1R)-3-methyl-1-benzofuran-2-yl)-5-(1-[pyrazolo[1,5-a]pyridin-5-yl]ethoxy)quinoline-4-carboxylate] the Activity was “++ (activity>50% of CFTR amplifier+VX-809 (3 uM) with compound at 10 uM and Compound A at 3 uM)”.
In the case of `CCc1ccc(OCc2cccc([S+](C)[O-])c2)c2c(C(=O)O)cc(-c3oc4ccccc4c3C)nc12` (stereo not drawn) [Compound 142, 8-Ethyl-5-[(3-methanesulfinylphenyl)methoxy]-2-(3-methyl-1-benzofuran-2-yl)quinoline-4-carboxylic Acid], the Activity is reported as “++ (activity>50% of CFTR amplifier+VX-809 (3 uM) with compound at 10 uM and Compound A at 3 uM)”.
With `Cc1cc(C)c2nc(-c3oc4ccccc4c3C)cc(C(=O)O)c2c1` [Compound 9, 6,8-dimethyl-2-(3-methyl-1-benzofuran-2-yl)quinoline-4-carboxylic acid] the Activity was “++ (activity>50% of CFTR amplifier+VX-809 (3 uM) with compound at 10 uM and Compound A at 3 uM)”.
With `CCc1ccc(O[C@@H](C)c2ccccc2)c2c(C(=O)O)cc(-c3csc4ccccc34)nc12` [Compound 166] the Activity was “++ (activity>50% of CFTR amplifier+VX-809 (3 uM) with compound at 10 uM and Compound A at 3 uM)”.
In the case of `CNS(=O)(=O)c1ccc([C@@H](C)Oc2ccc(C)c3nc(-c4oc5ccccc5c4C)cc(C(=O)[O-])c23)cc1.[Na+]` [Compound 239, Sodium 8-Methyl-2-(3-methyl-l-benzofuran-2-yl)-5-[(1R)-1-[4-(methylsulfamoyl)phenyl]ethoxy]quinoline-4-carboxylate], the Activity is reported as “++ (activity>50% of CFTR amplifier+VX-809 (3 uM) with compound at 10 uM and Compound A at 3 uM)”.
For `Cc1c(-c2cc(C(=O)[O-])c3c(OC4CC5(COC5)C4)ccc(C)c3n2)oc2ccccc12.[Na+]` [Compound 369], the Activity was “++ (activity>50% of CFTR amplifier+VX-809 (3 uM) with compound at 10 uM and Compound A at 3 uM)”.
`Cc1c(-c2cc(C(=O)[O-])c3c(O[C@H]4CCC[C@@H](c5ccccc5)C4)ccc(C)c3n2)oc2ccccc12.[Na+]` [Compound 299] was tested, and the Activity was “++ (activity>50% of CFTR amplifier+VX-809 (3 uM) with compound at 10 uM and Compound A at 3 uM)”.
With `Cc1c(-c2cc(C(=O)[O-])c3c(OC[C@H]4CC[C@](C)(O)CC4)ccc(C)c3n2)oc2ccccc12.[Na+]` [Compound 377] the Activity was “++ (activity>50% of CFTR amplifier+VX-809 (3 uM) with compound at 10 uM and Compound A at 3 uM)”.
For `Cc1c(-c2cc(C(=O)O)c3c(O[C@H]4CC[C@H](c5ccccc5)CC4)ccc(C)c3n2)oc2ccccc12` [Compound 76, 8-Methyl-2-(3-methyl-1-benzofuran-2-yl)-5-[[(1r,4r)-4-phenylcyclohexyl]oxy]quinoline-4-carboxylic acid], the Activity was “++ (activity>50% of CFTR amplifier+VX-809 (3 uM) with compound at 10 uM and Compound A at 3 uM)”.
With `Cc1cc(C)c2nc(-c3oc4ccccc4c3C)cc(CO)c2c1` [Compound 29, [6,8-Dimethyl-2-(3-methyl-1-benzofuran-2-yl)quinolin-4-yl]methanol] the Activity was “+ (activity<50% of an CFTR amplifier (Compound A)+VX-809 (3 uM) with compound at 10 uM and Compound A at 3 uM)”.
